# Results taken from patent US12162861B2, “Dopamine D3 receptor selective antagonists/partial agonists; method of making; and use thereof” (THE UNITED STATES OF AMERICA, AS REPRESENTED BY THE …, priority 2016, dated 2024).
# “Also recorded” adds a separate entry of the source.
# What was measured:
# [1] = target: T1, human dopamine D3R (Homo sapiens, UniProt P35462); test: D3R mitogenesis assay in CHO cells; type: cell-based; settings: stimulation of mitogenesis, CHO cells with human D3R; read-out: Agonist EC50 ± SEM
# T1 construct: expressed in transfected cells; host or cells: CHO
# T1 sequence (P35462 whole entry): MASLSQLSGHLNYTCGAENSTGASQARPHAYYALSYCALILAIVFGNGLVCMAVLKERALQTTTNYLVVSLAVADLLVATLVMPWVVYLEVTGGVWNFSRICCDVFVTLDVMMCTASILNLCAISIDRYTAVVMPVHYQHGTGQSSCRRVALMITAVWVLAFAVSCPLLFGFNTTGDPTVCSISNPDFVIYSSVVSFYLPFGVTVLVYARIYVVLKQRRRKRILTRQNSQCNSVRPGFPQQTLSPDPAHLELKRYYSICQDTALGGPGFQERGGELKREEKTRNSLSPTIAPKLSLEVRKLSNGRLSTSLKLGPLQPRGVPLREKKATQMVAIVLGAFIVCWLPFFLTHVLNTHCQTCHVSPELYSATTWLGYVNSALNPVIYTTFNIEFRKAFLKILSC
# [2] = system: Long-Evans rats; test: Reinstatement of drug-seeking induced by oxycodone priming in rats; type: in vivo, rat; settings: 5-15 mg/kg i.p., oxycodone priming 1 mg/kg i.p.
# Protocol: Experiment 3. […] After completion of self-administration training, three additional groups of animals were exposed to the extinction conditions, in which cocaine was replaced by saline, and the cocaine-associated cue-light and tone were turned off. Active lever-pressing led only to saline infusion. Daily 3 hr extinction sessions for each rat continued until lever presses ≤10 times per 3 h session for at least 3 consecutive days. […] Fifteen min after injection, they were given a priming injection of oxycodone (1 mg/kg i.p.) and immediately put into the self-administration chambers. Animals were allowed to press levers for another extinction session and their responses on the levers were recorded.
# [3] = system: squirrel monkeys; test: Cue-induced reinstatement of drug seeking in squirrel monkeys; type: in vivo, squirrel monkey (Saimiri sciureus)
# Description: Cue-induced reinstatement: After the completion of priming-induced reinstatement testing, the monkeys were returned to baseline THC self-administration for 5-10 sessions. In subsequent extinction sessions, drug injections and all cues associated with drug injections were removed. This means that catheters were not connected to a pump and monkeys were not receiving infusions or visual cue presentations. After two or three days of extinction, we tested for cue-induced reinstatement of extinguished drug-seeking behavior after vehicle pretreatment (i.m.) by allowing delivery of a saline injection paired with the drug-associated cues. […] Each reinstatement test was a single session, which was preceded and followed by extinction session(s) with vehicle pretreatment (i.m.) 30 min before the sessions.
# Δ^9-tetrahydrocannabinol (THC, NIDA Drug Supply Program, Bethesda, MD, USA) was dissolved in a vehicle containing 1% Tween 80, 1% ethanol, and saline to obtain stock solution (0.4 mg/ml) and further diluted with saline. In the reinstatement tests, THC was injected i.v. (1 ml/kg) immediately before the session.
# [4] = target: cannabinoid CB2 receptor (Homo sapiens, UniProt P34972); test: Binding to cannabinoid CB2 receptor
# Chain of cannabinoid CB2 receptor (P34972 whole entry): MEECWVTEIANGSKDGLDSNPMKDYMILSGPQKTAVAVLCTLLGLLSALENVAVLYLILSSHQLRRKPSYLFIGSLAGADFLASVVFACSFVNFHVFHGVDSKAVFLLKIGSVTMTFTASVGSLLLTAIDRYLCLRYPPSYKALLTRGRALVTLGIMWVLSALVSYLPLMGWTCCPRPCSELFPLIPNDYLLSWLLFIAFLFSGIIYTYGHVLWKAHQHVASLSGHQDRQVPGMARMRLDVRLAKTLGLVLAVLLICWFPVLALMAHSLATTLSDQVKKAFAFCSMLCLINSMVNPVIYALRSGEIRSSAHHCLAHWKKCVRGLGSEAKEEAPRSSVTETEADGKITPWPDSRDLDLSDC
# [5] = system: Long-Evans rats; test: Oxycodone self-administration in rats; type: in vivo, rat; settings: for oxycodone self-administration (oxycodone taking): FR1, 5-25 mg/kg i.p., FIG. 3A
# Protocol: MATERIALS AND METHODS: Male Long-Evans rats (Charles-River, Raleigh, N.C.) were used. […] All the experimental procedures were consistent with the “Principles of Laboratory Animal Care” published by National Institutes of Health (NIH publication 86-23, 1996) and were approved by the NIDA Animal Care and Use Committee.
# Surgery: Rats (300-350 g) used for oxycodone self-administration were first implanted with an intravenous catheter. They were anaesthetized with pentobarbital (30 mg/kg i.p.) supplemented with chloral hydrate (140 mg/kg, i.p.). A small incision was next made to the right of the midline of the neck and the external jugular vein was externalized and an i.v. catheter, made of microrenathane (Braintree Scientific Inc., Braintree, MA, USA) was inserted with its tip reaching right atrium. The catheter was secured to the vein with silk suture and the other end fed subcutaneously around the back of the neck to exit near the back of the skull. The end was slipped over a bent 24-gauge stainless steel cannula (Plastic One Inc., Roanoke, VA, USA) with a threaded head used to secure a dummy cannula and, during experimentation, an infusion line. The catheter and the guide cannula were then secured to the skull with four stainless steel screws threaded into the skull and dental cement and the wound was sutured.
# After surgery, the catheters were flushed daily with a gentamicin-heparin-saline solution (30 IU/ml heparin; ICN Biochemicals, Cleveland, OH, USA) as precaution against catheter clogging and infection. The animals were allowed to recover for at least 5 days before the behavioral training started.
# Self-administration apparatus and oxycodone self-administration training: Rats in 3 experimental tests were first trained to self-administer oxycodone. The self-administration apparatus and procedures have been described previously (Xi et al., 2004, 2005). […] This infusion time was also served as a timeout period during which the light-tone cue was kept activated and animal' responses on the active lever were recorded but had no scheduled consequence. […]
# [6] = Phase I metabolic stability in monkey liver microsomes; type: in vitro ADME, rhesus monkey; settings: FIG. 1; 10 μM, 0.5 mg/mL microsomes
# Protocol: Methods: Phase I metabolic stability assay was conducted in rat and rhesus monkey liver microsomes. For phase I metabolism, the reaction was carried out with 100 mM potassium phosphate buffer, pH 7.4, in the presence of NADPH regenerating system (1.3 mM NADPH, 3.3 mM glucose 6-phosphate, 3.3 mM MgCl2, 0.4 U/mL glucose-6-phosphate dehydrogenase, 50 μM sodium citrate). Reactions in triplicate were initiated by addition of the liver microsomes to the incubation mixture (compound final concentration was 10 μM; 0.5 mg/mL microsomes). Negative controls in the absence of cofactors were carried out to determine the specific cofactor-free degradation. Compound disappearance was monitored via LC/MS/MS. Chromatographic analysis was performed using an Accela™ ultra high-performance system consisting of an analytical pump, and an autosampler coupled with TSQ Vantage mass spectrometer (Thermo Fisher Scientific Inc., Waltham MA). […] The mobile phase used was composed of 0.1% Formic Acid in Acetonitrile and 0.1% Formic Acid in H2O with gradient elution, starting with 10% (organic) linearly increasing to 99% up to 2 min, maintaining at 99% (2-2.5 min) and re-equilibrating to 10% by 2.7 min. The total run time for each analyte was 5.0 min.
smiles,measurement,setting,value
"CCc1cc(Cl)c(OC)c(N2CCN(CC(O)CCNC(=O)c3cc4ccccc4[nH]3)CC2)c1 (racemic) [Compound 29, N-(4-(4-(3-chloro-5-ethyl-2-methoxyphenyl)piperazin-1-yl)-3-hydroxybutyl)-1H-indole-2-carboxamide]",EC50,[1],> 8.3 µM
same,oxycodone-induced reinstatement to drug seeking,[2]; FIG. 4,blocked oxycodone-induced reinstatement to drug seeking
same,oxycodone-induced reinstatement to drug seeking,"[2]; FIG. 4, listed as (±)-29",attenuating effects
same,cue-induced reinstatement of drug seeking behavior,[3],attenuated cue-induced reinstatement of drug seeking behavior
same,binding to cannabinoid CB2 receptor,[4],does not bind
same,oxycodone self-administration (oxycodone taking),[5],attenuated self-administration at 15 and 25 mg/kg
same,oxycodone self-administration (oxycodone taking),[5]; listed as (±)-29,attenuating effects
same,"acquisition of oxycodone self-administration, number of infusions","[5]; pretreatment 5-15 mg/kg i.p., oxycodone 0.05 mg/kg/infusion, effect at 15 mg/kg",significantly lower number of infusions of oxycodone
same,metabolic stability in monkey liver microsomes versus PG648,[6],improved metabolic stability as compared to Compound 1; also recorded: surprisingly high metabolic stability
